#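 GI50: concentration for 50% inhibition of growth. Definition used: TGI = concentration required for complete inhibition of growth.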
# How the values were obtained:
# Test in all cases: NCI anticancer screen, dose series, 384-well format
# RXF 393 renal = test system: RXF 393 renal
# SK-MEL-28 melanoma = test system: SK-MEL-28 melanoma
# HS 578T breast = test system: HS 578T breast
# CAKI-1 renal = test system: CAKI-1 renal
# SNB-19 CNS = test system: SNB-19 CNS
# NCI-H522 lung = test system: NCI-H522 lung
# SK-MEL-2 melanoma = test system: SK-MEL-2 melanoma
# U251 glioblastoma = test system: U251 glioblastoma
# ACHN renal = test system: ACHN renal
# HCT-116 colon = test system: HCT-116 colon
# MDA-MB-435 melanoma = test system: MDA-MB-435 melanoma
# SK-OV-3 ovarian = test system: SK-OV-3 ovarian
# M14 melanoma = test system: M14 melanoma
# UO-31 renal = test system: UO-31 renal
# 786-0 renal = test system: 786-0 renal
# SF-268 CNS = test system: SF-268 CNS
# SK-MEL-5 melanoma = test system: SK-MEL-5 melanoma
# TK-10 renal = test system: TK-10 renal
# A549 NSCLC = test system: A549 NSCLC
# MALME-3M melanoma = test system: MALME-3M melanoma
# SF-539 CNS = test system: SF-539 CNS
# KM12 colon = test system: KM12 colon
# SN12C renal = test system: SN12C renal
# SW-620 colon = test system: SW-620 colon
# OVCAR-5 ovarian = test system: OVCAR-5 ovarian
# HL-60(TB) leukemia = test system: HL-60(TB) leukemia
# IGROV1 ovarian = test system: IGROV1 ovarian
# NCI-H322M lung = test system: NCI-H322M lung
smiles,measurement,setting,value
O=C(Nc1ccc2[nH]nc(-c3ccncc3)c2c1)[C@@H]1CCN(CC(=O)N2CCN(c3ccc(-c4ncccn4)cc3)CC2)C1,GI50,RXF 393 renal,1050 nM
same,TGI,RXF 393 renal,3550 nM
same,GI50,SK-MEL-28 melanoma,18.6 nM
same,TGI,SK-MEL-28 melanoma,174 nM
same,GI50,HS 578T breast,10800 nM
same,TGI,HS 578T breast,36000 nM
same,GI50,CAKI-1 renal,507 nM
same,TGI,CAKI-1 renal,20600 nM
same,GI50,SNB-19 CNS,> 100000 nM
same,TGI,SNB-19 CNS,> 100000 nM
same,GI50,NCI-H522 lung,9330 nM
same,TGI,NCI-H522 lung,22100 nM
same,GI50,SK-MEL-2 melanoma,37.5 nM
same,TGI,SK-MEL-2 melanoma,192 nM
same,GI50,U251 glioblastoma,1790 nM
same,TGI,U251 glioblastoma,22200 nM
same,GI50,ACHN renal,8760 nM
same,TGI,ACHN renal,> 100000 nM
same,GI50,HCT-116 colon,68.7 nM
same,TGI,HCT-116 colon,1260 nM
same,GI50,MDA-MB-435 melanoma,65.2 nM
same,TGI,MDA-MB-435 melanoma,> 100000 nM
same,GI50,SK-OV-3 ovarian,20300 nM
same,TGI,SK-OV-3 ovarian,90700 nM
same,GI50,M14 melanoma,25.3 nM
same,TGI,M14 melanoma,198 nM
same,GI50,UO-31 renal,2280 nM
same,TGI,UO-31 renal,16100 nM
same,GI50,786-0 renal,9920 nM
same,TGI,786-0 renal,23600 nM
same,GI50,SF-268 CNS,17900 nM
same,TGI,SF-268 CNS,73400 nM
same,GI50,SK-MEL-5 melanoma,78.1 nM
same,TGI,SK-MEL-5 melanoma,4430 nM
same,GI50,TK-10 renal,853 nM
same,TGI,TK-10 renal,> 100000 nM
same,GI50,A549 NSCLC,628 nM
same,TGI,A549 NSCLC,> 100000 nM
same,TGI,MALME-3M melanoma,44.2 nM
same,GI50,SF-539 CNS,690 nM
same,TGI,SF-539 CNS,9720 nM
same,GI50,KM12 colon,5610 nM
same,TGI,KM12 colon,> 100000 nM
same,GI50,SN12C renal,2280 nM
same,TGI,SN12C renal,> 100000 nM
same,GI50,SW-620 colon,86.3 nM
same,TGI,SW-620 colon,> 100000 nM
same,GI50,OVCAR-5 ovarian,160 nM
same,TGI,OVCAR-5 ovarian,> 100000 nM
same,GI50,HL-60(TB) leukemia,16.3 nM
same,TGI,HL-60(TB) leukemia,1260 nM
same,GI50,IGROV1 ovarian,438 nM
same,TGI,IGROV1 ovarian,35700 nM
same,GI50,NCI-H322M lung,623 nM

# — PubChem BioAssay (NCI)
